Measured values: patent US20240239806A1, “COMPOUNDS, COMPOSITIONS AND METHODS OF TREATING DISORDERS” (Chengdu Anticancer Bioscience, Ltd., priority 2021, published 2024)
Entries after “also recorded” stand apart in the source; their conditions may differ. Like-named read-outs stand apart in the source and are kept apart here.

Tests used:
[1] = test system: MDA-MB-231; experiment: MECP in cancer cell line; assay type: cell-based; conditions: Homo sapiens
Procedure, shortened: (§1)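 Cells grown in DMEM with 5% FBS at 37° C, 5% CO2, then treated at 1 nM to 30 μM. Imaging at 24, 48 or 72 h scored mitotic arrest or DNA-content change; hits show transient mitotic-index rise at 24 h and polyploid accumulation at 48 h; values binned A (≤1.0 μM) to D (>30.0 μM).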

[2] = test system: HCT116; experiment: MECP in cancer cell line; assay type: cell-based; conditions: Homo sapiens, HCT-116
Procedure, shortened: as §1

[3] = test system: SW480; experiment: MECP in cancer cell line; assay type: cell-based; conditions: Homo sapiens
Procedure, shortened: as §1

[4] = test system: A549; experiment: MECP in cancer cell line; assay type: cell-based; conditions: Homo sapiens
Procedure, shortened: as §1

[5] = test system: Hela; experiment: MECP in cancer cell line; assay type: cell-based; conditions: Homo sapiens
Procedure, shortened: as §1

[6] = test system: T2 HCC; experiment: MECP in cancer cell line; assay type: cell-based; conditions: Mus musculus
Procedure, shortened: as §1

[7] = test system: human breast cancer cell line MDA-MB-231; experiment: Xenograft assay; assay type: in vivo; conditions: MDA-MB-231 xenograft, Nu/Nu mice, 25 mg/kg oral gavage twice a day for 7 days
Description: (§2) Xenografts were initiated in immunocompromised (Nu/Nu) mice with the human lung adenocarcinoma cell line NCI-H23 (FIG. 4A) and the human breast cancer cell line MDA-MB-231 (FIG. 4B). Seven million cells were injected subcutaneously into each mouse and treatment was initiated when the average tumor volumes reached 150 mm3 (n=5/group). Tumor-bearing mice were randomized into different groups to receive either vehicle or indicated compounds. The compounds were administered through oral gavage twice a day for 7 days. For these experiments, all compounds were first dissolved in DMSO and then diluted 1:10 into a mixture containing 50% PEG300 and 49% PBS, 1% Tween 80, pH2.2. 100 ul of drug solution was administered with each dose to each a dose of 25 mg/kg. Tumor volumes were determined from digital caliper raw data by using the formula: Volume (mm3)=(L×W^2)/2. The value W (Width) is the smaller of two perpendicular tumor axes and the value L (Length) is the larger of two perpendicular axes. Mean tumor volumes were calculated for each treatment group at the start point (day 0) and the endpoint (day 7). The percentage change of tumor volumes, defined as (Tumor […]˜Tumor Volume^day0)/Tumor Volume^day0×100% is presented.

[8] = test system: human lung adenocarcinoma cell line NCI-H23; experiment: Xenograft assay; assay type: in vivo; conditions: Nu/Nu mice, 25 mg/kg oral gavage twice a day for 7 days
Description: as §2

[9] = test system: RPEMYC^H2B-GFP cells; experiment: Phenotypic screening assay (mitotic arrest, polyploidy); assay type: cell-based; conditions: 1 nM to 30 μM; for IC50: read-out: Proliferative arrest (>50%)
Procedure, shortened: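 RPE cells expressing MYC and H2B-EGFP treated with compound at 1 nM–30 μM; mitotic index scored at 24 h and polyploidy (DNA content) at 48 h by automated imaging, with reads at 24, 48 or 72 h. Hits show transient mitotic arrest followed by polyploid accumulation.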

[10] = test system: NCI-N87; experiment: MECP in cancer cell line; assay type: cell-based; conditions: Homo sapiens
Procedure, shortened: as §1

[11] = test system: NCI-H23; experiment: MECP in cancer cell line; assay type: cell-based; conditions: Homo sapiens
Procedure, shortened: as §1

[12] = test system: MDA-MB-231; experiment: MTT assay of cellular proliferation; assay type: cell-based; conditions: Homo sapiens; MDA-MB-231, MTT, 50% inhibition of cellular proliferation
Procedure, shortened: (§3)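 Proliferation is scored by MTT conversion, with formazan absorbance at 570 nm proportional to live cell number. Cultures in 5% FBS DMEM at 37 °C are treated across 1 nM-30 μM, and the half-inhibitory concentration is reported as EC50.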

[13] = test system: HCT116; experiment: MTT assay of cellular proliferation; assay type: cell-based; conditions: Homo sapiens, HCT-116, 50% inhibition of cellular proliferation
Procedure, shortened: as §3

[14] = test system: SW480; experiment: MTT assay of cellular proliferation; assay type: cell-based; conditions: Homo sapiens, 50% inhibition of cellular proliferation
Procedure, shortened: as §3

[15] = test system: NCI-N87; experiment: MTT assay of cellular proliferation; assay type: cell-based; conditions: Homo sapiens, 50% inhibition of cellular proliferation
Procedure, shortened: as §3

[16] = test system: A549; experiment: MTT assay of cellular proliferation; assay type: cell-based; conditions: Homo sapiens, 50% inhibition of cellular proliferation
Procedure, shortened: as §3

[17] = test system: Hela; experiment: MTT assay of cellular proliferation; assay type: cell-based; conditions: Homo sapiens, 50% inhibition of cellular proliferation
Procedure, shortened: as §3

[18] = test system: T2 HCC; experiment: MTT assay of cellular proliferation; assay type: cell-based; conditions: Mus musculus, 50% inhibition of cellular proliferation
Procedure, shortened: as §3

[19] = test system: NCI-H23; experiment: MTT assay of cellular proliferation; assay type: cell-based; conditions: Homo sapiens, 50% inhibition of cellular proliferation
Procedure, shortened: as §3

[20] = read-out: Min. Effective conc. for Polyploidy (≥5%)

EC50 [12] [nM] | EC50 [13] [nM] | EC50 [14] [nM] | EC50 [16] [nM] | EC50 [17] [nM] | EC50 [18] [nM] | Structure (SMILES) | minimal effective concentration [1] [µM] | minimal effective concentration [2] [µM] | minimal effective concentration [3] [µM] | minimal effective concentration [4] [µM] | minimal effective concentration [5] [µM] | minimal effective concentration [6] [µM] | tumor growth (percentage change of tumor volumes) [7] | tumor growth (percentage change of tumor volumes) [8] | minimal effective concentration [9, 20] [µM] | minimal effective concentration ([9]; read-out: Mitotic Arrest (≥5%)) [µM] | IC50 [9] [nM] | minimal effective concentration [10] [µM] | minimal effective concentration [11] [µM] | EC50 [15] [nM] | further results
1 to 1000 | 1 to 1000 | 1 to 1000 | 1 to 1000 | 1 to 1000 | 1 to 1000 | COc1cc(Oc2ccnc3ccsc23)cc(-n2cccn2)c1 [Compound 40, 7-(3-methoxy-5-(1H-pyrazol-1-yl)phenoxy)thieno[3,2-b]pyridine] | 0.001 to 1 | 0.001 to 1 | 0.001 to 1 | 0.001 to 1 | 0.001 to 1 | 0.001 to 1 | suppress the growth; also recorded: suppressing the tumor growth | suppress the growth; also recorded: suppressing the tumor growth | 0.001 to 1 | 0.001 to 1 | 1 to 1000 | 0.001 to 1 | 0.001 to 1 | 1 to 1000 | EC50 [19]: 1 to 1000 nM
1 to 1000 | 1 to 1000 | 1 to 1000 | 1 to 1000 | 1 to 1000 | 1 to 1000 | COc1cc(NC(C)=O)cc(Oc2ccnc3ccsc23)c1 [Compound 43, N-(3-methoxy-5-(thieno[3,2-b]pyridin-7-yloxy)phenyl)acetamide] | 0.001 to 1 | 0.001 to 1 | 0.001 to 1 | 0.001 to 1 | 0.001 to 1 | 0.001 to 1 | suppress the growth; also recorded: suppressing the tumor growth and even eliciting tumor regression | suppress the growth; also recorded: suppressing the tumor growth and even eliciting tumor regression | 0.001 to 1 | 0.001 to 1 | 1 to 1000 | 0.001 to 1 | 0.001 to 1 | 1 to 1000 | EC50 [19]: 1 to 1000 nM
1 to 1000 | 1 to 1000 | 1 to 1000 | 1 to 1000 | 1 to 1000 | 1 to 1000 | COc1cc(Oc2ccnc3cc(OC)c(OC)cc23)cc(-n2cccn2)c1 [Compound 26, 6,7-dimethoxy-4-(3-methoxy-5-(1H-pyrazol-1-yl)phenoxy)quinoline] | 0.001 to 1 | 0.001 to 1 | 0.001 to 1 | 0.001 to 1 | 0.001 to 1 | 0.001 to 1 | suppress the growth; also recorded: suppressing the tumor growth | suppress the growth; also recorded: suppressing the tumor growth | 0.001 to 1 | 0.001 to 1 | 1 to 1000 | 0.001 to 1 | 0.001 to 1 | 1 to 1000 | EC50 [19]: 1 to 1000 nM
1 to 1000 | 1 to 1000 | 1 to 1000 | 1 to 1000 | 1 to 1000 | 1 to 1000 | COc1cc(Oc2ccnc3ccc(Br)cc23)cc(-n2cccn2)c1 [Compound 21, 6-bromo-4-(3-methoxy-5-(1H-pyrazol-1-yl)phenoxy)quinoline] | 0.001 to 1 | 0.001 to 1 | 0.001 to 1 | 0.001 to 1 | 0.001 to 1 | 0.001 to 1 | suppress the growth; also recorded: suppressing the tumor growth | suppress the growth; also recorded: suppressing the tumor growth | 0.001 to 1 | 0.001 to 1 | 1 to 1000 | 0.001 to 1 | 0.001 to 1 | 1 to 1000 | EC50 [19]: 1 to 1000 nM
